Measurements published in article doi:10.1101/2025.07.01.662521v3, “Ligand-induced Conformational Plasticity of the CTLH E3 Ligase Receptor GID4” (biorxiv, 2026).
Where two headings read alike, the source gives them in different places.

Legend:
GID4 [1] = biological target: T1, GID4 (Homo sapiens, UniProt Q8IVV7); assay: biochemical; design: SPR binding affinity to immobilized biotinylated GID4; conditions: read-out: KD by SPR
T1 construct: residues 116-300; N-terminal Strep-SUMO-3C-6xHis-Avi, HRV-3C cleaved, Avi-tag kept and biotinylated; E. coli BL21(DE3)
T1 sequence (Q8IVV7 116-300): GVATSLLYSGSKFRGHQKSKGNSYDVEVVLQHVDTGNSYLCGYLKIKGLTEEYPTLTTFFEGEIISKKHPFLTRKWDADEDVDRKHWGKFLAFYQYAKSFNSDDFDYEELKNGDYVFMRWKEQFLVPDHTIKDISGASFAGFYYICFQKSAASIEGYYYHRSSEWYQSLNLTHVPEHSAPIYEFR
Experimental: (§1) Following the identification of the binding pocket and the key interactions of the initial fragment, we initiated the synthesis of a series of analogs to explore the structure-activity relationship (SAR) (Table 1). The resulting changes in affinity were evaluated using surface plasmon resonance (SPR) and differential scanning fluorimetry (DSF). […] In the next step, we replaced the 3-Cl group to find an additional potency boost. […] All constructs were verified by sequencing. Protein was expressed by transforming plasmid into chemically competent recombinant E. coli BL21(DE3) strain. E coli was cultured in LB medium supplemented with 50 µg/mL kanamycin in shaker flasks at 37 °C and 160 rpm. Once an optical density at 600 nm (OD600) reached 0.5-0.6, protein expression was induced by an addition of 0.1 mM IPTG.

GID4 [2] = biological target: T2, GID4 (Homo sapiens, UniProt Q8IVV7); design: Differential scanning fluorimetry, thermal shift of GID4; conditions: binder
T2 construct: residues 116-300, N-terminal 6xHis-SUMO tag (DSF construct)
T2 sequence (Q8IVV7 1-300): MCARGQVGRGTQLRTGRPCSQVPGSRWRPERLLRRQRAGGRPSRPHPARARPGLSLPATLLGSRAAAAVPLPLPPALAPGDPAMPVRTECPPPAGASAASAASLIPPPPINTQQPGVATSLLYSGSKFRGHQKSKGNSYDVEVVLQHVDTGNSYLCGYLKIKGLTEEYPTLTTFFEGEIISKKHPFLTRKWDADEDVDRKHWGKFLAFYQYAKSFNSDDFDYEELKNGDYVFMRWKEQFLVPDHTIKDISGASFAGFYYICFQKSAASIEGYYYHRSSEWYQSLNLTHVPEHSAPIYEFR
Experimental: Following the identification of the binding pocket and the key interactions of the initial fragment, we initiated the synthesis of a series of analogs to explore the structure-activity relationship (SAR) (Table 1). The resulting changes in affinity were evaluated using surface plasmon resonance (SPR) and differential scanning fluorimetry (DSF). […] In the next step, we replaced the 3-Cl group to find an additional potency boost. […] MATERIALS AND METHODS Recombinant Protein Expression and Purification GID4 Expression and Purification Human Glucose-induced degradation protein 4 homolog (Gid4, UniProt ID: Q8IVV7) residues 124-289 were cloned into a vector to generate a N-terminal 6xHis-SUMO-tag for crystallography studies, residues 116-300 were cloned into a vector to generate a N-terminal 6xHis-SUMO-tag for DSF studies and residues 116-300 were cloned into a vector to generate a N-terminal Strep-SUMO-3C-6xHis-AVI-tag for SPR experiments. All constructs were verified by sequencing. Protein was expressed by transforming plasmid into chemically competent recombinant E. coli BL21(DE3) strain. E coli was cultured in LB medium supplemented with 50 µg/mL kanamycin in shaker flasks at 37 °C and 160 rpm. Once an optical density at 600 nm (OD600) reached 0.5-0.6, protein expression was induced by an addition of 0.1 mM IPTG.

GID4 [3] = biological target: T1, GID4; assay: SPR, steady-state affinity; assay type: binding
Excerpt: SPR, steady-state affinity on GID4

GID4 [4] = biological target: T1, GID4; assay: SPR; assay type: binding
HiBiT-GID4(FL) = biological target: T3, HiBiT-GID4(FL) (Homo sapiens, UniProt Q8IVV7); design: species or system HEK293T; HiBiT cellular thermal shift of full-length GID4, luminescence, delta Tagg; conditions: binder
T3 construct: full length, N-terminal HiBiT tag, stably expressed in HEK293T (piggyBac)
T3 sequence (Q8IVV7 1-300): T2 sequence (Q8IVV7 1-300)
Excerpt: (§2) Following the confirmation of cellular target engagement, we assessed the ability of GID4 to induce targeted protein degradation by synthesizing a panel of GID4-BRD4 bifunctional compounds. We utilized our lead ligand 14 together with a well-known BRD4 ligand JQ1, exploring a range of standard linkers with varying exit vectors and lengths, including rigid alkyl, and flexible PEG (2x, or 4xPEG) (Figure 6A). […] We assessed binary interactions with GID4 and BRD4, as well as the ternary complex formation by SPR and HTRF (Figure 6 and Table S2). All bifunctional compounds, except for 26, retained high affinity for BRD4 (K ^BRD4 =0.006-0.02 µM). […] Crucially, all degraders equipped with the active JQ1 warhead mediated ternary complex formation between GID4 and BRD4 (Figure 6 B-C). We further utilized NanoBRET assay to confirm BRD4 engagement, in both intact and lysed HEK293T cells (Table S2). […] This discrepancy indicates potential permeability limitations or active efflux of the bifunctional molecules. Despite successful BRD4 engagement, none of the degraders stabilized GID4 in the intracellular engagement assay, resulting in negative ΔTagg values (Table S2). This was consistent across all compounds, independent of linker length, composition, or exit vector. Consequently, no degradation of BRD4 was observed (Figures S11–S13), highlighting that while ternary complex formation is achievable in vitro, the physicochemical properties of these GID4-based PROTACs currently limit their intracellular efficacy.

GID4 [5] = biological target: T1, GID4; design: SPR binding affinity to immobilized biotinylated GID4; conditions: binder
Experimental: as §1

BRD4 = BRD4 (Homo sapiens, UniProt O60885); design: SPR binary binding affinity to BRD4; conditions: binder
Excerpt: as §2

Row | SMILES | Kd (GID4 [1]) | ΔTm by DSF (°C) (GID4 [2]) | further results
1 | COCCOCCC1CCCN(C(=O)c2cc(-c3cc(F)cc(N=C(N)N4CCC(C)(C)CC4)c3)oc2C)C1 (racemic) [compound 21] | 50 nM | 6.8 ± 0.04 °C | –
2 | CC(=O)N1CCN(CC2CCCN(C(=O)c3cc(-c4cc(F)cc(N=C(N)N5CCC(C)(C)CC5)c4)oc3C)C2)CC1 (racemic) [compound 23] | 90 nM | 6.4 ± 0.02 °C | –
3 | NC(=Nc1ccccc1)N1CCCCC1 [compound 1] | – | 1.0 ± 0.06 °C | Kd (GID4 [3]): 78800 nM
4 | NC(=Nc1cccc(Cl)c1)N1CCCCC1 [compound 2] | – | 1.6 ± 0.13 °C | Kd (GID4 [4]; read-out: KD): 23000 nM
5 | NC(=Nc1cccc(F)c1)N1CCCCC1 [compound 3] | – | 3.3 ± 0.06 °C | Kd (GID4 [4]; read-out: KD): 12000 nM
6 | NC(=Nc1cc(F)cc(Cl)c1)N1CCCCC1 [compound 4] | – | 2.8 ± 0.08 °C | Kd (GID4 [4]; read-out: KD): 8160 nM
7 | CC1CCCN(C(N)=Nc2cc(F)cc(Cl)c2)C1 (stereo not shown) [compound 7] | – | 3.3 ± 0.03 °C | Kd (GID4 [4]; read-out: KD): 4120 nM
8 | Cc1ccc(-c2cc(F)cc(N=C(N)N3CCC(C)CC3)c2)o1 [compound 9] | – | – | Kd (GID4 [4]; PBS pH 7.4, 0.05% P-20, 1 mM DTT, 1% DMSO, biotinylated GID4 immobilised on SA chip, read-out: KD): 730 nM
9 | CNC(=O)c1cc(-c2cc(F)cc(N=C(N)N3CCC(C)(C)CC3)c2)oc1C [compound 11] | 310 nM | 4.8 ± 0.07 °C | –
10 | Cc1oc(-c2cc(F)cc(N=C(N)N3CCC(C)(C)CC3)c2)cc1C(=O)Nc1ccccc1 [compound 13] | 1430 nM | 3.9 ± 0.03 °C | –
11 | Cc1oc(-c2cc(F)cc(N=C(N)N3CCC(C)(C)CC3)c2)cc1C(=O)N1CCCCC1 [compound 14] | – | 7.7 ± 0.05 °C | Kd (GID4 [4]; read-out: KD^GID4): 30 nM
12 | Cc1oc(-c2cc(F)cc(/N=C(/N)N3CCC(C)(C)CC3)c2)cc1C(=O)N1CCN(C)CC1 [compound 15, 15] | 120 nM | 5.9 ± 0.08 °C | –
13 | COC1CCN(C(=O)c2cc(-c3cc(F)cc(N=C(N)N4CCC(C)(C)CC4)c3)oc2C)CC1 [compound 18] | 130 nM | 7.1 ± 0,04 °C | –
14 | COCCOCCC1CCN(C(=O)c2cc(-c3cc(F)cc(N=C(N)N4CCC(C)(C)CC4)c3)oc2C)CC1 [compound 20] | 50 nM | 6.5 ± 0,03 °C | –
15 | CC(=O)N1CCN(CC2CCN(C(=O)c3cc(-c4cc(F)cc(N=C(N)N5CCC(C)(C)CC5)c4)oc3C)CC2)CC1 [compound 22] | 140 nM | 5.9 ± 0.04 °C | –
16 | Cc1oc(-c2cc(F)cc(/N=C(/N)N3CCC(C)(C)CC3)c2)cc1C(=O)N1CCC(CN2CCN(C(=O)C[C@@H]3N=C(c4ccc(Cl)cc4)c4c(sc(C)c4C)-n4c(C)nnc43)CC2)CC1 [compound 24, 24] | – | – | GID4 intracellular target engagement ΔTagg [ºC] (HiBiT-GID4(FL)): -1.7 ± 1.2 °C; Kd (GID4 [5]): 320 nM; Kd (BRD4): 13 nM
17 | Cc1oc(-c2cc(F)cc(/N=C(/N)N3CCC(C)(C)CC3)c2)cc1C(=O)N1CCCC(CN2CCN(C(=O)C[C@@H]3N=C(c4ccc(Cl)cc4)c4c(sc(C)c4C)-n4c(C)nnc43)CC2)C1 (stereo partly shown) [compound 25, 25] | – | – | GID4 intracellular target engagement ΔTagg [ºC] (HiBiT-GID4(FL)): -1.4 ± 0.3 °C; Kd (GID4 [5]): 500 nM; Kd (BRD4): 20 nM
18 | Cc1oc(-c2cc(F)cc(/N=C(/N)N3CCC(C)(C)CC3)c2)cc1C(=O)N1CCC(CN2CCN(C(=O)C[C@H]3N=C(c4ccc(Cl)cc4)c4c(sc(C)c4C)-n4c(C)nnc43)CC2)CC1 [compound 26] | – | – | GID4 intracellular target engagement ΔTagg [ºC] (HiBiT-GID4(FL)): -2 ± 0.6 °C; Kd (GID4 [4]; PBS pH 7.4, 0.05% P-20, 1 mM DTT, 1% DMSO, biotinylated GID4 immobilised on SA chip, read-out: KD^GID4): 630 nM
19 | Cc1oc(-c2cc(F)cc(/N=C(/N)N3CCC(C)(C)CC3)c2)cc1C(=O)N1CCCC(OCCOCCOCCNC(=O)C[C@@H]2N=C(c3ccc(Cl)cc3)c3c(sc(C)c3C)-n3c(C)nnc32)C1 (stereo partly shown) [compound 28, 28] | – | – | GID4 intracellular target engagement ΔTagg [ºC] (HiBiT-GID4(FL)): -2.6 ± 3.7 °C; Kd (BRD4): 16 nM
20 | Cc1oc(-c2cc(F)cc(/N=C(/N)N3CCC(C)(C)CC3)c2)cc1C(=O)N1CCC(OCCOCCOCCOCCOCCNC(=O)C[C@@H]2N=C(c3ccc(Cl)cc3)c3c(sc(C)c3C)-n3c(C)nnc32)CC1 [compound 29, 29] | – | – | GID4 intracellular target engagement ΔTagg [ºC] (HiBiT-GID4(FL)): 0.1 ± 0.4 °C; Kd (BRD4): 6 nM
21 | Cc1oc(-c2cc(F)cc(/N=C(/N)N3CCC(C)(C)CC3)c2)cc1C(=O)N1CCCC(OCCOCCOCCOCCOCCNC(=O)C[C@@H]2N=C(c3ccc(Cl)cc3)c3c(sc(C)c3C)-n3c(C)nnc32)C1 (stereo partly shown) [compound 30, 30] | – | – | GID4 intracellular target engagement ΔTagg [ºC] (HiBiT-GID4(FL)): -0.3 ± 1.0 °C; Kd (BRD4): 6 nM

The next lines start with results.

Row | Kd (GID4 [1]) | ΔTm by DSF (°C) (GID4 [2]) | SMILES | further results
22 | 50 nM | 7.1 ± 0.01 °C | COC1CCCN(C(=O)c2cc(-c3cc(F)cc(N=C(N)N4CCC(C)(C)CC4)c3)oc2C)C1 (racemic) [compound 19] | –
23 | – | 3.3 ± 0.04 °C | CC1CCCCN1C(N)=Nc1cc(F)cc(Cl)c1 (stereo not shown) [compound 5] | Kd (GID4 [4]; read-out: KD): 2870 nM
24 | – | 3.2 ± 0.08 °C | CC1CCN(C(N)=Nc2cc(F)cc(Cl)c2)CC1 [compound 6] | Kd (GID4 [4]; read-out: KD): 2940 nM
25 | – | 4.3 ± 0.05 °C | Cc1ccc(-c2cc(F)cc(N=C(N)N3CCCCC3C)c2)o1 (stereo not shown) [compound 8] | Kd (GID4 [4]; read-out: KD): 940 nM
26 | 60 nM | 6.9 ± 0.18 °C | Cc1oc(-c2cc(F)cc(N=C(N)N3CCC(C)(C)CC3)c2)cc1C(=O)N(C)C [compound 12] | –
27 | 90 nM | 6.2 ± 0.01 °C | Cc1oc(-c2cc(F)cc(/N=C(/N)N3CCC(C)(C)CC3)c2)cc1C(=O)N1CCOCC1 [compound 16, 16] | –
